# Experimental data as given in PubChem BioAssay (NCI).
#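 Dose response: 5 concentrations. Exposure: 48 h. Format: 96-well plates. Endpoint: linear interpolation; highest concentration if not reached. TGI marks complete inhibition of growth.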
# Assays:
# Experiment in all cases: NCI tumour cell line growth inhibition, 48 h
# A498 renal = system: A498 renal
# A549 NSCLC = system: A549 NSCLC
# BT-549 breast = system: BT-549 breast
# CAKI-1 renal = system: CAKI-1 renal
# HOP-62 NSCLC = system: HOP-62 NSCLC
# HOP-92 NSCLC = system: HOP-92 NSCLC
# HS 578T breast = system: HS 578T breast
# K-562 leukemia = system: K-562 leukemia
# M14 melanoma = system: M14 melanoma
# MDA-N = system: MDA-N
# MOLT-4 leukemia = system: MOLT-4 leukemia
# OVCAR-3 ovarian = system: OVCAR-3 ovarian
# PC-3 prostate = system: PC-3 prostate
# RPMI-8226 leukemia = system: RPMI-8226 leukemia
# SK-MEL-5 melanoma = system: SK-MEL-5 melanoma
# SNB-19 CNS = system: SNB-19 CNS
# SW-620 colon = system: SW-620 colon
# UACC-62 melanoma = system: UACC-62 melanoma
# MDA-MB-435 = system: MDA-MB-435
Structure (SMILES),TGI (A498 renal) [µM],TGI (A549 NSCLC) [µM],TGI (BT-549 breast) [µM],TGI (CAKI-1 renal) [µM],TGI (HOP-62 NSCLC) [µM],TGI (HOP-92 NSCLC) [µM],TGI (HS 578T breast) [µM],TGI (K-562 leukemia) [µM],TGI (M14 melanoma) [µM],TGI (MDA-N) [µM],TGI (MOLT-4 leukemia) [µM],TGI (OVCAR-3 ovarian) [µM],TGI (PC-3 prostate) [µM],TGI (RPMI-8226 leukemia) [µM],TGI (SK-MEL-5 melanoma) [µM],TGI (SNB-19 CNS) [µM],TGI (SW-620 colon) [µM],TGI (UACC-62 melanoma) [µM],TGI (MDA-MB-435) [µM]
CC(C)/C(Cl)=N\OC(=O)Nc1cccc(F)c1,17.9,34.9,19.5,32.5,> 31.6,4.69,63.2,4.8,10.8,29.5,6.29,32.4,30.2,15.3,28.4,> 100,5.5,45.3,
COC(=O)/C=C/c1ccc2c(c1)CCC2,> 100,> 100,,> 100,> 100,46.7,> 100,> 100,> 100,> 100,> 100,> 100,> 100,> 100,> 100,> 100,> 100,,> 100
C/C=C/c1c(O)c(=O)c2c(OC)cc(OC)c3c4c(OC)cc(OC)c5c(=O)c(O)c(/C=C/C)c(c1c23)c54,> 100,> 100,14.3,21.1,54.5,35.5,,> 100,> 100,29.4,> 100,15.5,19.8,> 100,24.3,17.2,87.8,30.6,26.1
CCOC(=O)Cc1nnc2c(-c3ccccc3)nc3ccccc3n12,> 100,> 100,> 100,,27.6,> 100,,> 100,> 100,> 100,> 100,51.9,> 100,> 100,> 100,62.1,> 100,> 100,> 100
CC(=N/NC(=S)N1CCCCC1)/C(=N\NC(=S)N1CCCCC1)c1ccccc1,2.65,4.5,3.56,4.22,4.43,3.36,4.82,> 100,3.64,7.64,> 100,3.34,3.55,> 100,3.57,3.64,,3.87,4.07
COc1ccc(NC(=O)CC(=O)N2N=C(N3CCCCC3)CC2c2ccccc2)cc1 (stereo not drawn),> 100,> 100,> 100,> 100,> 100,> 100,> 100,,> 100,> 100,> 100,> 100,> 100,,> 100,> 100,> 100,> 100,> 100
CN(NC(=O)c1ccco1)C1=NCCN1,> 100,> 100,> 100,,> 100,> 100,> 100,> 100,> 100,> 100,> 100,> 100,> 100,> 100,> 100,> 100,> 100,> 100,> 100
COc1ccc(N(C)S(=O)(=O)c2ccccc2)cc1,,> 100,> 100,> 100,> 100,,> 100,> 100,> 100,> 100,> 100,> 100,> 100,> 100,> 100,> 100,> 100,> 100,> 100
Cc1ccc(/C(O)=C/c2nc3ccccc3oc2=O)cc1,> 100,> 100,> 100,> 100,> 100,,> 100,> 100,> 100,59.3,> 100,> 100,> 100,,46.2,> 100,,> 100,83.4
O=c1[nH]nc(Cc2ccccc2)n1/N=C/c1c(O)ccc2ccccc12,47.4,> 100,> 100,88.8,,50.3,81.1,64.4,,> 100,79.2,47.5,64,82.5,48.7,46.5,> 100,> 100,> 100
Cc1ccc2c(c1)C(=O)/C(=C\c1ccccc1)CCS2(=O)=O,52.1,> 87.8,> 37.2,49.9,> 86,> 56.9,> 85.1,5.52,> 53.8,> 52.4,87.5,39.9,> 71.1,,29.4,28.2,73.5,31.9,> 61.4
Cc1cc(C)nc(NS(=O)(=O)c2ccc(Nc3nncc(=O)n3N)cc2)n1,> 100,> 100,32.6,29.5,34.7,,> 100,43.9,> 100,30,48.6,29.8,54.9,49.8,33.1,83,44.2,51.2,33
CC1Cc2c(Br)nc(N)nc2NC1=O (stereo not drawn),> 100,> 100,> 100,> 100,> 100,,> 100,> 100,> 100,> 100,> 100,> 100,> 100,> 100,> 100,> 100,> 100,> 100,> 100
CC(=O)Oc1ccc2c(c1)Oc1cc(C(C)=O)ccc1C21OC(=O)c2ccccc21 (stereo not drawn),> 100,> 100,> 100,> 100,> 100,> 100,,> 100,> 100,> 100,> 100,> 100,> 100,> 100,> 100,> 100,> 100,> 100,> 100
O=C1C=CC2(O[C@H](c3ccccc3)[C@@H](c3ccccc3)O2)C(SC(=O)c2ccccc2)C1 (stereo partly drawn),20.6,17.4,1.65,6.53,3.31,,5.04,> 100,3.07,3.32,> 100,4.41,4.58,3.25,2.87,5.63,0.811,5.84,4.8
N#Cc1ccc(Oc2nc3ccccc3nc2-c2ccccc2)cc1,> 100,,> 100,> 100,> 100,> 100,> 100,> 100,,> 100,> 100,> 100,> 100,> 100,> 100,> 100,> 100,> 100,> 100
COc1ccccc1C1SCC(=O)N1c1ccc(-n2c(-c3ccccc3)nc3ccccc3c2=O)cc1 (stereo not drawn),> 100,> 100,> 100,> 100,> 100,> 100,> 100,> 100,,> 100,> 100,> 100,> 100,> 100,> 100,> 100,> 100,> 100,> 100
COc1c(C)c(C/C=C(\C)CCCCO[Si](C(C)C)(C(C)C)C(C)C)c(OC)c2ccccc12,,> 100,> 100,> 100,> 100,> 100,> 100,> 100,> 100,> 100,> 100,> 100,> 100,,> 100,> 100,> 100,> 100,> 100
CC1=NN(c2cccc(Cl)c2)C2(SCC(=O)N2c2nc3ccccc3s2)/C1=C\c1ccc(Cl)cc1 (stereo not drawn),40.2,,,39.2,35.3,28.3,73.6,41.3,43.5,69.8,20.8,37.2,31.1,39.5,30.8,,27.9,,43.1
O=C(Nc1cc(C(=O)Nc2cccc(S(=O)(=O)O)c2)cc(C(=O)Nc2cccc(S(=O)(=O)O)c2)c1)c1cccc(C(=O)Nc2cc(C(=O)Nc3cccc(S(=O)(=O)O)c3)cc(C(=O)Nc3cccc(S(=O)(=O)O)c3)c2)c1,> 100,> 100,> 100,> 100,> 100,,> 100,58.6,> 100,> 100,> 100,> 100,> 100,> 100,> 100,,> 100,> 100,> 100
C/C=C(C)/C=C/CC(C)CCC=C(C)C (stereo not drawn),> 100,> 100,> 100,> 100,,> 100,,> 100,> 100,> 100,> 100,> 100,,,> 100,> 100,> 100,> 100,> 100
CCOC(=O)c1ccc(Nc2nc3cc(C(F)(F)F)ccc3nc2-c2ccccc2)cc1,,> 100,> 100,> 100,61.7,,84.2,> 100,,> 100,> 10,> 100,69.2,> 100,> 100,> 100,> 100,29.4,> 100
O=C(O)CNC(=O)CO/N=C1/C(c2c(O)[nH]c3ccccc23)=Nc2ccccc21,,> 100,> 100,> 100,87.3,> 100,> 100,> 100,> 100,> 100,> 100,> 100,> 100,> 100,> 100,> 100,> 100,> 100,> 100
COc1ccc2cc(C(C)C(O)c3cc(F)c(F)c(F)c3F)ccc2c1 (stereo not drawn),> 100,> 100,> 100,,> 100,> 100,,> 100,> 100,> 100,,> 100,> 100,> 100,> 100,> 100,> 100,> 100,> 100
CCOP(C)(=O)C(Cc1c[nH]c2ccccc12)C(=O)O (stereo not drawn),> 100,> 100,> 100,> 100,> 100,> 100,,> 100,> 100,> 100,> 100,> 100,> 100,> 100,> 100,> 100,> 100,> 100,> 100
Cc1ccc(CC(=O)Nc2ccc(NC(=O)/C=C/NC(=O)/C=C/c3ccc(-c4ccccc4)cc3)cc2C(=O)c2ccccc2)cc1,5.31,4.32,3.11,11.3,4.15,,3.74,> 100,7.3,6.61,9.16,4.32,3.48,14.7,5.14,16,3.44,4.87,10.8
